Columns and labels:
[1] = molecular target: T1, recombinant human serotonin transporter expressed in HEK-293 cells (Homo sapiens, UniProt P31645); test: Serotonin functional uptake assay for human reuptake transporter; assay type: cell-based; conditions: functional uptake of serotonin; read-out: hSERT (IC50 nM)
T1 construct: expressed in transfected cells; host or cells: HEK-293
Experimental: (§1) Compounds were initially tested at 10 μM in duplicate.
HEK-293 cells expressing human serotonin transporter were plated before the assay. […] Cells with internalized [^3H]serotonin were washed and the amount of tritium taken into cells is counted using a liquid scintillation counter to determine [^3H]serotonin uptake. Non-specific binding of tritium was measured in a control reaction containing […], and was subtracted from the counts for assays to correct for non-specific binding of tritium. Reduction of [^3H]serotonin uptake by 50 percent or more (≧50%) relative to an uninhibited control reaction indicates significant inhibitory activity.

[2] = molecular target: T2, recombinant human norepinephrine transporter expressed in either HEK293 or MDCK cells (Homo sapiens, UniProt P23975); test: Norepinephrine functional uptake assay for human reuptake transporter; assay type: cell-based; conditions: functional uptake of norepinephrine
T2 construct: expressed in transfected cells; host or cells: HEK293 or MDCK
T2 sequence (P23975 whole entry): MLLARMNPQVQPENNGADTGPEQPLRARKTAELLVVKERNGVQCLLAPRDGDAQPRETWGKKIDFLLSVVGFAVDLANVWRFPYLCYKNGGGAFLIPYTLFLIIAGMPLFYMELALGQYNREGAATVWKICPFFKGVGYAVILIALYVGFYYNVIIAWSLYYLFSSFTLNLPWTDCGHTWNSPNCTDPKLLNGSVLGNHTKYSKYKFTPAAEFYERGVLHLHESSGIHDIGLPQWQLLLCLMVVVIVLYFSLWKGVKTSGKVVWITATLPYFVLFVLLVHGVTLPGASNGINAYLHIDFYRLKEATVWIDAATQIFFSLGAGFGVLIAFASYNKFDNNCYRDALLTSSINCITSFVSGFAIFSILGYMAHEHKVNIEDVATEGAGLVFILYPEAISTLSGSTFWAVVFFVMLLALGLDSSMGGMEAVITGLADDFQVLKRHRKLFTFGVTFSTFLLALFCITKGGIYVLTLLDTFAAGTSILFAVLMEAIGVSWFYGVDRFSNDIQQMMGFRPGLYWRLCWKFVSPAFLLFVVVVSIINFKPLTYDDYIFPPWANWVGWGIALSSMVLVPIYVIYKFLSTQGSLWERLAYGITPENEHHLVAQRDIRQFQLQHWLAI
Experimental: as §1
The cells were plated before the assay. Test compound and/or vehicle was preincubated with cells in modified HEPES buffer pH 7.1 or pH 7.4 for 20 minutes at 18 to 25° C. […] After the cells were washed to remove [^3H]norepinephrine not internalized, the cells were lysed, and the amount of tritium in the cell lysate was measured using a liquid scintillation counter to determine [^3H]norepinephrine uptake. Non-specific binding of tritium was measured in a control reaction containing […] (or […]), and was subtracted from the counts for assays to correct for non-specific binding of tritium. Reduction of [^3H]norepinephrine uptake by 50 percent or more (≧50%) relative to an uninhibited control reaction indicates significant inhibitory activity.

[3] = molecular target: T3, recombinant human dopamine transporter expressed in either CHO-K1 or HEK293 cells (Homo sapiens, UniProt Q01959); test: Dopamine functional uptake assay for human reuptake transporter; assay type: cell-based; conditions: functional uptake of dopamine
T3 construct: expressed in transfected cells; host or cells: CHO-K1 or HEK293
T3 sequence (Q01959 whole entry): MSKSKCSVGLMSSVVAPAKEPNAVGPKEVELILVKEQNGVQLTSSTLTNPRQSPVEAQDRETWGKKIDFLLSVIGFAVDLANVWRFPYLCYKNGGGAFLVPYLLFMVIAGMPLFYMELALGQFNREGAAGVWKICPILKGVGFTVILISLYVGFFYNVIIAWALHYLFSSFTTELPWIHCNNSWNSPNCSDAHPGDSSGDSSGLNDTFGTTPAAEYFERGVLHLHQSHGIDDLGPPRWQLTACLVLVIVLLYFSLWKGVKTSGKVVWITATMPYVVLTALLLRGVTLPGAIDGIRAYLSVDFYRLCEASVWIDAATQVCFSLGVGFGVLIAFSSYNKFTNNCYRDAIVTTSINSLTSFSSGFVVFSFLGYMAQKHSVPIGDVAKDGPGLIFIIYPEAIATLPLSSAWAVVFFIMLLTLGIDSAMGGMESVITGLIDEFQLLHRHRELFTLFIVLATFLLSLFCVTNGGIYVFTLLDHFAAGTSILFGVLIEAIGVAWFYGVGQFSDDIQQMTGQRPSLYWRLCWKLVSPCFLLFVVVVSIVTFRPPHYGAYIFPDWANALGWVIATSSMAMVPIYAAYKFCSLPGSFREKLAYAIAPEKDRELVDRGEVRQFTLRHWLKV
Experimental: as §1
Either CHO-K1 or HEK293 cells expressing human recombinant dopamine transporter were plated before the assay. Test compound and/or vehicle was preincubated with cells in modified HEPES buffer pH 7.1 or pH 7.4 for 20 minutes at 18 to 25° C. and 50 nM [^3H]dopamine was then added for an additional timed incubation period (10 to 30 minutes). After washing the cells to remove [^3H]dopamine not internalized, the cells were lysed, and the amount of tritium in the lysate was measured using a liquid scintillation counter to determine [^3H]dopamine uptake. Non-specific binding of tritium was measured in a control reaction containing 10 μM nomifensine, and was subtracted from the counts for assays to correct for non-specific binding of tritium. Reduction of [^3H]dopamine uptake by 50 percent or more (≧50%) relative to an uninhibited control reaction indicates significant inhibitory activity.

[4] = in vivo; cited from earlier work
serotonin uptake sites = serotonin uptake sites (Homo sapiens, UniProt P31645); conditions: compared with the racemic compound; cited from earlier work
Sequence of serotonin uptake sites (P31645 whole entry): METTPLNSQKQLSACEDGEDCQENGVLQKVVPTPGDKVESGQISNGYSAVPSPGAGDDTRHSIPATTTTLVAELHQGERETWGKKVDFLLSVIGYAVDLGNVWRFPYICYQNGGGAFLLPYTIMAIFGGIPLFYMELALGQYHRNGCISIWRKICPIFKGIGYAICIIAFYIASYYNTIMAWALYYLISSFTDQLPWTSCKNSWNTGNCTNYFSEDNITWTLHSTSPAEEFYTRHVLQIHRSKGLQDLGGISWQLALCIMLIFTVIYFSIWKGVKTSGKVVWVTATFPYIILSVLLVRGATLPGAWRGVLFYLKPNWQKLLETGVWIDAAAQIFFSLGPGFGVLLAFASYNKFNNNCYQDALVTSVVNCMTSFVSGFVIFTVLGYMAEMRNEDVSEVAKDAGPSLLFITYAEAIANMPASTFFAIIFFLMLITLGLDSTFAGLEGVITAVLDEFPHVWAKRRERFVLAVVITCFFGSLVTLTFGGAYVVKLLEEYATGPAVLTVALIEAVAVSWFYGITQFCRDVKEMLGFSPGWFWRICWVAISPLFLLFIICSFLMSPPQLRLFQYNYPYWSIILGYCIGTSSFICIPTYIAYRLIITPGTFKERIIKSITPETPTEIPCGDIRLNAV

T1 sequence (P31645 whole entry): as above

SMILES	IC50 [1] [nM]	hNET (IC50 nM) [2]	hDAT (IC50 nM) [3]	immobility in the tail suspension test [4]	affinity for the serotonin uptake sites (serotonin uptake sites)
CN1CCC(C2(c3ccc(Cl)c(Cl)c3)CCCCC2)C1 (centres unmarked) [Compound 4]	> 500	− (IC50 > 500 nM)	+++ (IC50 < 10 nM)		
CO[C@]1(C)CC[C@@](c2ccc(Cl)c(Cl)c2)([C@H]2CCNC2)CC1 [Compound 28]	< 100	+++ (IC50 < 10 nM)	++ (IC50 ≦ 100 nM)		
CO[C@]1(C)CC[C@@](c2ccc(Cl)c(Cl)c2)([C@@H]2CCNC2)CC1 [Compound 27]	< 10	+++ (IC50 < 10 nM)	++ (IC50 ≦ 100 nM)		
c1ccc2cc(C3(C4CCNC4)CCCC3)ccc2c1 (single isomer, unassigned) [Compound 11]	< 1	+++ (IC50 < 10 nM)	+++ (IC50 < 10 nM)		
c1ccc2cc(C3(C4CCNC4)CCCCC3)ccc2c1 (single isomer, unassigned) [Compound 10]	< 1	++ (IC50 ≦ 100 nM)	++ (IC50 ≦ 100 nM)		
CO[C@]1(C)CC[C@](c2ccc(Cl)c(Cl)c2)([C@@H]2CCNC2)CC1 [Compound 26]	< 100	+++ (IC50 < 10 nM)	+++ (IC50 < 10 nM)		
C[C@]1(O)CC[C@@](c2ccc(Cl)c(Cl)c2)([C@H]2CCNC2)CC1 [Compound 17]	< 10	+++ (IC50 < 10 nM)	++ (IC50 ≦ 100 nM)		
Clc1ccc(C2(C3CCNC3)CCC2)cc1Cl (single isomer, unassigned) [Compound 8]	< 100	++ (IC50 ≦ 100 nM)	++ (IC50 ≦ 100 nM)		
Clc1ccc(C2(C3CCNC3)CCCC2)cc1Cl (single isomer, unassigned) [Compound 5]	< 100	++ (IC50 ≦ 100 nM)	++ (IC50 ≦ 100 nM)		
CN1CCC(C2(c3ccc(Cl)c(Cl)c3)CCCCC2)C1 (centres unmarked) [Compound 3]	100 to 500	+ (100 nM < IC50 ≦ 500 nM)	++ (IC50 ≦ 100 nM)		
O[C@H]1CC[C@@](c2ccc(Cl)c(Cl)c2)([C@H]2CCNC2)CC1 [Compound 21]	< 10	+++ (IC50 < 10 nM)	++ (IC50 ≦ 100 nM)		
Clc1ccc(C2(C3CCNC3)CCOCC2)cc1Cl (centres unmarked) [Compound 15]	< 100	++ (IC50 ≦ 100 nM)	++ (IC50 ≦ 100 nM)		
Clc1ccc(C2(C3CCNC3)CCC2)cc1Cl (single isomer, unassigned) [Compound 7]	< 100	++ (IC50 ≦ 100 nM)	+++ (IC50 < 10 nM)		
O[C@H]1CC[C@](c2ccc(Cl)c(Cl)c2)([C@@H]2CCNC2)CC1 [Compound 24]	< 1	++++ (IC50 < 1 nM)	+++ (IC50 < 10 nM)		
CO[C@]1(C)CC[C@](c2ccc(Cl)c(Cl)c2)([C@H]2CCNC2)CC1 [Compound 25]	< 10	++ (IC50 ≦ 100 nM)	+++ (IC50 < 10 nM)		
O[C@H]1CC[C@](c2ccc(Cl)c(Cl)c2)([C@H]2CCNC2)CC1 [Compound 23]	< 10	+++ (IC50 < 10 nM)	+++ (IC50 < 10 nM)		

SMILES	IC50 [1] [nM]	hNET (IC50 nM) [2]	hDAT (IC50 nM) [3]	immobility in the tail suspension test [4]	affinity for the serotonin uptake sites (serotonin uptake sites)
C[C@]1(O)CC[C@@](c2ccc(Cl)c(Cl)c2)([C@@H]2CCNC2)CC1 [Compound 18]	< 10	+++ (IC50 < 10 nM)	++ (IC50 ≦ 100 nM)		
O[C@@]1(C2(c3ccc(Cl)c(Cl)c3)CCCC2)CCNC1 [Compound 29]	< 10	+++ (IC50 < 10 nM)	++ (IC50 ≦ 100 nM)		
Clc1ccc(C2(C3CCNC3)CCCCC2)cc1Cl (single isomer, unassigned) [Compound 1]	< 1	+++ (IC50 < 10 nM)	++ (IC50 ≦ 100 nM)		
c1ccc2cc(C3(C4CCNC4)CCC3)ccc2c1 (single isomer, unassigned) [Compound 14]	< 10	++ (IC50 ≦ 100 nM)	++ (IC50 ≦ 100 nM)		
c1ccc2cc(C3(C4CCNC4)CCCC3)ccc2c1 (single isomer, unassigned) [Compound 12]	< 1	++++ (IC50 < 1 nM)	++ (IC50 ≦ 100 nM)		
C[C@]1(O)CC[C@](c2ccc(Cl)c(Cl)c2)([C@H]2CCNC2)CC1 [Compound 20]	< 10	++ (IC50 ≦ 100 nM)	+++ (IC50 < 10 nM)		
C[C@]1(O)CC[C@](c2ccc(Cl)c(Cl)c2)([C@@H]2CCNC2)CC1 [Compound 19]	< 10	++ (IC50 ≦ 100 nM)	+++ (IC50 < 10 nM)		
Clc1ccc(C2(C3CCNC3)CCCCC2)cc1Cl (single isomer, unassigned) [Compound 2]	< 100	++ (IC50 ≦ 100 nM)	++ (IC50 ≦ 100 nM)		
c1ccc2cc(C3(C4CCNC4)CCC3)ccc2c1 (single isomer, unassigned) [Compound 13]	< 100	++ (IC50 ≦ 100 nM)	++ (IC50 ≦ 100 nM)		
O[C@H]1CC[C@@](c2ccc(Cl)c(Cl)c2)([C@@H]2CCNC2)CC1 [Compound 22]	< 10	+++ (IC50 < 10 nM)	+++ (IC50 < 10 nM)		
c1ccc2cc(C3(C4CCNC4)CCCCC3)ccc2c1 (single isomer, unassigned) [Compound 9]	< 10	+ (100 nM < IC50 ≦ 500 nM)	++ (IC50 ≦ 100 nM)		
Clc1ccc(C2(C3CCNC3)CCOCC2)cc1Cl (centres unmarked) [Compound 16]	< 10	+++ (IC50 < 10 nM)	+++ (IC50 < 10 nM)		
O[C@]1(C2(c3ccc(Cl)c(Cl)c3)CCCC2)CCNC1 [Compound 30]	< 100	++ (IC50 ≦ 100 nM)	++ (IC50 ≦ 100 nM)		
Clc1ccc(C2(C3CCNC3)CCCC2)cc1Cl (single isomer, unassigned) [Compound 6]	< 10	++ (IC50 ≦ 100 nM)	++ (IC50 ≦ 100 nM)		
Clc1ccc([C@@]23CNC[C@@H]2C3)cc1Cl (single isomer, unassigned) [DOV 21,947, (+)-1-(3,4-dichlorophenyl)-3-azabicyclo[3.1.0]hexane]				dose-dependent reduction in immobility	significantly greater affinity

From patent US9505716B2, “Pyrrolidine triple reuptake inhibitors” (SUNOVION PHARMACEUTICALS INC., priority 2009, dated 2016)
